Earlier results on one compound are cited in patent US11478001B2, “Methods of administering a pre-operative carbohydrate-rich beverage composition” (ClearFast Inc., priority 2014, dated 2022).

The conditions of the series: short-term oral administration.

In the case of `NC(=O)NCCC[C@H](N)C(=O)O` [L-citrulline], the safety and tolerability entry was “safe and well tolerated”.
